Data from publication PMC12838199, “A highly conserved ABC transporter mediates cello-oligosaccharide uptake in the extremely thermophilic, lignocellulolytic bacterium Anaerocellum bescii (f. Caldicellulosiruptor bescii)” (Applied and Environmental Microbiology, 2025).

Experiments:
Assay type in all cases: binding
[1] = biological target: T1, Athe_0597 (Caldicellulosiruptor bescii, UniProt A0ABY1SBW7); test: differential scanning calorimetry; conditions: 5 mM sugar, 2 mg/mL protein, 50 mM HEPES, 300 mM NaCl, pH 7.0; 4 °C/min
T1 construct: gene SAMN05216240_2513; IMAC purified after 68 °C heat treatment
T1 sequence (A0ABY1SBW7 entry or part of it): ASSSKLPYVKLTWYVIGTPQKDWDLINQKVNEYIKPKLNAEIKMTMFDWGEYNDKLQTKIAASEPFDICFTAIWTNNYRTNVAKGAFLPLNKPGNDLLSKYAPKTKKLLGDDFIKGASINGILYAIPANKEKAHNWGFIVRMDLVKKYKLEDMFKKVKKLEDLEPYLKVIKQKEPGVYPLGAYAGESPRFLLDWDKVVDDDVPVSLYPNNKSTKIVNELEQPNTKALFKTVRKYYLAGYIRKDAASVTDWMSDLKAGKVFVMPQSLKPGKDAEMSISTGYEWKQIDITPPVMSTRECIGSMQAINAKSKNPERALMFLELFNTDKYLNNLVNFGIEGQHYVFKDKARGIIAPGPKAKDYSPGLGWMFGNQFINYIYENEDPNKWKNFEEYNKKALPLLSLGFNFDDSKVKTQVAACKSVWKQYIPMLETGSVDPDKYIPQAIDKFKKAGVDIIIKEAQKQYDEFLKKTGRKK
Text: differential scanning calorimetry on Athe_0597

[2] = biological target: T2, Athe_0598 (Caldicellulosiruptor bescii, UniProt A0ABY1SBM3); test: differential scanning calorimetry; conditions: 5 mM sugar, 2 mg/mL protein, 50 mM HEPES, 300 mM NaCl, pH 7.0; 4 °C/min
T2 construct: gene SAMN05216240_2512; IMAC purified after 68 °C heat treatment
T2 sequence (A0ABY1SBM3 entry or part of it): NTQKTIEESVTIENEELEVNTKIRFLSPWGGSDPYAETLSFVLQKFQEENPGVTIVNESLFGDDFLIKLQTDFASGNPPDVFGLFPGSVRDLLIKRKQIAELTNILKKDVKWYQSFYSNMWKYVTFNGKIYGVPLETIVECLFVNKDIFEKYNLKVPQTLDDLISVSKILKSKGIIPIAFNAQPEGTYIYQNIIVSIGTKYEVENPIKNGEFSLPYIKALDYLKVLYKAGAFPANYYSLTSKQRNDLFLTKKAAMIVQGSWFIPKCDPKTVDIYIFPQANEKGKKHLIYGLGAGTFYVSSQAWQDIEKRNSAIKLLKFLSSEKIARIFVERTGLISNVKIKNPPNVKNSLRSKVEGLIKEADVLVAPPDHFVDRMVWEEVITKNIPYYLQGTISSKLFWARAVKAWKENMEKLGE
Text: differential scanning calorimetry on Athe_0598

[3] = biological target: T2, Athe_0598; test: isothermal titration calorimetry; conditions: 25 °C; 50 mM HEPES, 300 mM NaCl, pH 7.0 (storage and characterization buffer); single-site model
Text: isothermal titration calorimetry on Athe_0598

[4] = biological target: T1, Athe_0597; test: isothermal titration calorimetry; conditions: 25 °C; 50 mM HEPES, 300 mM NaCl, pH 7.0 (storage and characterization buffer); single-site model
Text: isothermal titration calorimetry on Athe_0597

Row | ΔTm (°C) [1] | ΔTm (°C) [2] | Kd [3] | Kd [4] | SMILES
1 | 7.57 °C | 8.53 °C | 2.84 ± 0.36 µM | 0.228 ± 0.1 µM | OC[C@H]1O[C@@H](O[C@H]2[C@H](O)[C@@H](O)C(O)O[C@@H]2CO)[C@H](O)[C@@H](O)[C@@H]1O (stereo partly shown) [G2, cellobiose]
2 | 6.89 °C | – | – | 0.942 ± 0.12 µM | OC[C@H]1O[C@@H](O[C@H]2[C@H](O)[C@@H](O)[C@H](O[C@H]3[C@H](O)[C@@H](O)C(O)O[C@@H]3CO)O[C@@H]2CO)[C@H](O)[C@@H](O)[C@@H]1O (stereo partly shown) [G3, cellotriose]
3 | 9.30 °C | – | – | 1.97 ± 0.52 µM | OC[C@H]1O[C@@H](O[C@H]2[C@H](O)[C@@H](O)[C@H](O[C@H]3[C@H](O)[C@@H](O)[C@H](O[C@H]4[C@H](O)[C@@H](O)C(O)O[C@@H]4CO)O[C@@H]3CO)O[C@@H]2CO)[C@H](O)[C@@H](O)[C@@H]1O (stereo partly shown) [G4, cellotetraose]
4 | 8.72 °C | – | – | 1.18 ± 0.12 µM | OC[C@H]1O[C@@H](O[C@H]2[C@H](O)[C@@H](O)[C@H](O[C@H]3[C@H](O)[C@@H](O)[C@H](O[C@H]4[C@H](O)[C@@H](O)[C@H](O[C@H]5[C@H](O)[C@@H](O)C(O)O[C@@H]5CO)O[C@@H]4CO)O[C@@H]3CO)O[C@@H]2CO)[C@H](O)[C@@H](O)[C@@H]1O (stereo partly shown) [G5, cellopentaose]
